Assay results as given in patent US8497298B2, “Use of benzo-fused heterocycle sulfamide derivatives for lowering lipids and lowering blood glucose levels” (Janssen Pharmaceutica NV, priority 2005, dated 2013).

Experiments:
db/db mice [1] = assay: Diabetic db/db Mouse In Vivo Assay (Example 13); settings: female db/db mice, A300 mg/kg oral gavage once daily
From the text: Db/db mice are known in the art to be susceptible to Type II diabetes (Sharma K, McCue P, Dunn S R. Am J Physiol Renal Physiol. 2003 June;284(6):F1138-44). The Db/db mice are also known in the art to be a useful model for dylipidemia.
Female db/db mice (C57BL/6J-Lep^db/db, Jackson Laboratories, Bar Harbor, Me., USA) were received at 8 weeks of age and single-housed and fed with regular chow diet. Blood was collected by tail puncture and glucose was monitored with a glucometer (OneTouch Basic, Lifescan, Newtown, Pa.).
Mice at 10 weeks of age were randomized into treatment groups based on glucose values (first criterion, average of 250 mg/dl) and body weight (second criterion, average of 37 gram). The mice were orally gavaged once daily (0.2 ml at 1500-1700 hour) with vehicle control (0.5% methylcellulose, pH7.4) and vehicle containing test compound (A300 mg/kg). On day 11, the mice were fasted for 4 hr during light cycle (food was removed 0600-1000 hour) and blood glucose levels were measured through tail puncture with a glucometer at 1000 hour. The mice were then anaesthetized with sodium pentobarbital (1 ml/kg, i.p, Sleepaway, Fort Dodge, Iowa) and blood was drawn via cardiac puncture and collected into heparinized tubes.
White adipose tissue (WAT) (retroperitoneal fat) and skeletal muscle (gastrocnemius and soleus muscle) were dissected and weighed. Plasma samples were obtained by centrifuge at 2,000 g for 15 minutes at 4° C. and subjected to measurement of insulin, HDL cholesterol and triglyceride.
Data shown below are expressed as the mean and standard error calculated using 9-10 mice per treatment group. The 2 tailed Student's t-Tests were used for statistic analysis. All animal studies complied with the guideline of the Institutional Animal Care and Use Committee.

db/db mice [2] = assay: Female db/db Mouse Assay, Study A: single dose part and dose response part (Example 14); assay type: in vivo
From the text: 0.5% Hydroxypropyl Methylcellulose (Methocel) used as vehicle/control.
Db/db mice are susceptible to Type 2 diabetes. […] All of the mice were quarantined for a period of one week before transfer to the animal procedure room. A drop of blood (about 2 microliters) was collected by tail puncture and glucose concentration was detected with a glucometer (OneTouch UltraSmart, Lifescan, Milpitas, Calif.). […] Animals were separated and single housed at least three days prior to the drug treatments to allow acclimation to the new surroundings.
In the second, dose response part of Study A, 48 mice were allocated into 4 treatment groups of 12 mice each.
The dosing volume was 5 mL/kg body weight (0.2 mL for 40 gram mice). The mice were fed ad lib throughout the study. A necropsy was completed 18 hours after last dosing.
Blood glucose levels were measured from blood collected through tail puncture using a glucometer at 1000 hour. The mice were anaesthetized with sodium pentobarbital (1 ml/kg, intraperitoneal [i.p.] injection, SleepAway, Fort Dodge, Iowa) and blood was drawn via cardiac puncture using 1 mL syringe and collected into heparinized tubes. White adipose tissues (WAT) (retroperitoneal and inguinal fat pads), brown adipose tissure (BAT) and skeletal muscles (gastrocnemius and soleus muscle) and stomach contents were dissected and weighed. Plasma samples were obtained by centrifuging whole blood at 2000˜3000 g for 10˜20 minutes at 4° C. and stored at −20° C. for further measurement of insulin, HDL, LDL, total cholesterol and triglyceride.
Plasma insulin concentrations were measured by in both studies using the appropriate rat/mouse insulin enzyme-linked immunosorbent assay (ELISA) kit (EZRMI-13K, LINCO Research, St. Charles, Mo.). Blood samples were diluted 1:4 in charcoal stripped mouse serum that was included in the ELISA kit. The rest of the procedure followed the manufacturers instruction. The total fluorescence was detected using an Orion 1 Microplate Luminometer (Berthold Detection Systems, Pforzheim, Germany).
According to manufacturers protocol, cholesterol measurement was an enzymatic method utilizing cholesterol esterase and cholesterol oxidase conversion followed by a Trinder endpoint; Elimination/catalase method was used for HDL measurement; an enzymatic method with a Trinder endpoint was used for triglyceride measurement.
Data from both parts of the Study (single dose and dose response) was analyzed using the standard two-tailed Student's t-test and are expressed below as means and standard errors.

[3] = dose response part, 10 mg/kg, plasma
[4] = dose response part, 30 mg/kg, plasma
[5] = dose response part, 100 mg/kg, plasma
[6] = single dose part, Compound #8 300 mg/kg
[7] = single dose part, Compound #8 300 mg/kg oral once daily 10 days
[8] = single dose part, Compound #8 300 mg/kg, plasma

In the case of `NS(=O)(=O)NC[C@H]1COc2cc(Cl)ccc2O1` [Compound #8, (2S)-(−)-N-(6-Chloro-2,3-dihydro-benzo[1,4]dioxin-2-ylmethyl)-sulfamide], the “Retroperitoneal Fat Weight” value (db/db mice [1]; day 11) was 1.31 ± 0.07 g, the “Skeletal Muscle Weight” value (db/db mice [1]; day 11) was 0.154 ± 0.00 g and the “Blood Glucose” value (db/db mice [1]; day 11, fasted 4 hr) was 210 ± 27 mg/dL. The “HDL Cholesterol” value (db/db mice [1]; day 11, plasma) was 55.9 ± 3.7 mg/dL, the Triglycerides (db/db mice [1]; day 11, plasma) was 98 ± 41 mg/dL and the “fat to lean mass ratio” value (db/db mice [1]; p<0.01 vs vehicle 27.9±1.4) was 23.4±0.9. For the same compound, the “Insulin levels versus vehicle treated animals” value (db/db mice [1]; plasma) was “not statistically different”, the “total cholesterol concentrations elevated relative to vehicle” value (db/db mice [2]; Compound #8, dose not given) was 18.7% and the “Brown Adipose Tissue” value (db/db mice [2]; dose response part, 10 mg/kg) was 0.23 ± 0.01 g. It also gave an Inguinal fat (db/db mice [2]; dose response part, 10 mg/kg) of 2.15 ± 0.11 g, an Insulin (db/db mice [2]; dose response part, 10 mg/kg) of 11.9 ± 2.5 ng/mL and a Muscle (db/db mice [2]; dose response part, 10 mg/kg) of 0.140 ± 0.004 g. For the same compound, the “Ratio (Triglyceride to HDL)” value (db/db mice [2]; dose response part, 10 mg/kg) was 3.5 ± 0.3, the “Ratio (fat/muscle)” value (db/db mice [2]; dose response part, 10 mg/kg) was 25.9 ± 0.8 and the Retroperitoneal fat (db/db mice [2]; dose response part, 10 mg/kg) was 1.47 ± 0.04 g. For the same compound, the Glucose (db/db mice [2]; dose response part, 10 mg/kg oral once daily 10 days) was 420 ± 10 mg/dL, the Cholesterol (db/db mice [2]; [3]) was 92 ± 3 mg/dL and the HDL (db/db mice [2]; [3]) was 47.1 ± 1.5 mg/dL. The Triglyceride (db/db mice [2]; [3]) was 166 ± 13 mg/dL, the “Brown Adipose Tissue” value (db/db mice [2]; dose response part, 30 mg/kg) was 0.22 ± 0.01 g and the Inguinal fat (db/db mice [2]; dose response part, 30 mg/kg) was 1.97 ± 0.07 g. For the same compound, the Insulin (db/db mice [2]; dose response part, 30 mg/kg) was 10.8 ± 2.9 ng/mL, the Muscle (db/db mice [2]; dose response part, 30 mg/kg) was 0.141 ± 0.003 g and the “Ratio (Triglyceride to HDL)” value (db/db mice [2]; dose response part, 30 mg/kg) was 4.1 ± 0.3. For the same compound, the “Ratio (fat/muscle)” value (db/db mice [2]; dose response part, 30 mg/kg) was 24.5 ± 0.5, the Retroperitoneal fat (db/db mice [2]; dose response part, 30 mg/kg) was 1.49 ± 0.07 g and the Glucose (db/db mice [2]; dose response part, 30 mg/kg oral once daily 10 days) was 439 ± 13 mg/dL. It also gave a Cholesterol (db/db mice [2]; [4]) of 95 ± 2 mg/dL, an HDL (db/db mice [2]; [4]) of 49.2 ± 1.7 mg/dL and a Triglyceride (db/db mice [2]; [4]) of 202 ± 18 mg/dL. For the same compound, the “Brown Adipose Tissue” value (db/db mice [2]; dose response part, 100 mg/kg) was 0.24 ± 0.00 g, the Inguinal fat (db/db mice [2]; dose response part, 100 mg/kg) was 2.05 ± 0.09 g and the Insulin (db/db mice [2]; dose response part, 100 mg/kg) was 3.9 ± 1.4 ng/mL. The Muscle (db/db mice [2]; dose response part, 100 mg/kg) was 0.140 ± 0.007 g, the “Ratio (Triglyceride to HDL)” value (db/db mice [2]; dose response part, 100 mg/kg) was 3.3 ± 0.3 and the “Ratio (fat/muscle)” value (db/db mice [2]; dose response part, 100 mg/kg) was 26.3 ± 1.0. For the same compound, the Retroperitoneal fat (db/db mice [2]; dose response part, 100 mg/kg) was 1.55 ± 0.11 g, the “hyperinsulinemia decreased compared to vehicle treated mice” value (db/db mice [2]; dose response part, 100 mg/kg) was 63.5% and the Glucose (db/db mice [2]; dose response part, 100 mg/kg oral once daily 10 days) was 394 ± 17 mg/dL. It also gave a stomach content (db/db mice [2]; dose response part, 100 mg/kg, control 0.35±0.03 g, p<0.05) of 0.51 ± 0.04 g, a Cholesterol (db/db mice [2]; [5]) of 102 ± 3 mg/dL and an HDL (db/db mice [2]; [5]) of 51.7 ± 1.7 mg/dL. The Triglyceride (db/db mice [2]; [5]) was 169 ± 10 mg/dL, the “food intake and body weight” value (db/db mice [2]; dose response part, 10, 30 and 100 mg/kg groups) was “no differences” and the “Glucose levels reduced compared to vehicle treated mice” value (db/db mice [2]; single dose part, 300 mg/kg) was 50%. For the same compound, the “HDL elevated compared to vehicle” value (db/db mice [2]; single dose part, 300 mg/kg) was 22.8%, the “plasma triglyceride decreased compared to vehicle” value (db/db mice [2]; single dose part, 300 mg/kg) was 39.4% and the “ratio of triglyceride to HDL reduced” value (db/db mice [2]; single dose part, 300 mg/kg) was 50.2%. The “stomach content weights versus vehicle at the end of the experiment” value (db/db mice [2]; single dose part, 300 mg/kg) was “two times greater”, the “Brown Adipose Tissue” value (db/db mice [2]; [6]) was 0.25 ± 0.01 g and the “Final weight Body weight” value (db/db mice [2]; [6]) was 39 ± 0.9 g. For the same compound, the “Final weight Stomach contents” value (db/db mice [2]; [6]) was 0.52 ± 0.07 g, the Inguinal fat (db/db mice [2]; [6]) was 2.28 ± 0.11 g and the Muscle (db/db mice [2]; [6]) was 0.154 ± 0.00 g. The Retroperitoneal fat (db/db mice [2]; [6]) was 1.31 ± 0.07 g, the “Total chow consumption Day 1-3” value (db/db mice [2]; [6]) was 14 ± 0.9 g and the “Total chow consumption Day 4-6” value (db/db mice [2]; [6]) was 14.9 ± 1.1 g. For the same compound, the “Total chow consumption Day 7-9” value (db/db mice [2]; [6]) was 16 ± 0.6 g, the Glucose (db/db mice [2]; [7]) was 210 ± 27 mg/dL and the Insulin (db/db mice [2]; [7]) was 16.0 ± 2.5 ng/mL. It also gave a Cholesterol (db/db mice [2]; [8]) of 108 ± 3 mg/dL, an HDL (db/db mice [2]; [8]) of 55.9 ± 1.2 mg/dL and an LDL (db/db mice [2]; [8]) of 3.4 ± 0.2 mg/dL. For the same compound, the “Ratio (Triglyceride to HDL)” value (db/db mice [2]; [8]) was 1.8 ± 0.3, the Triglyceride (db/db mice [2]; [8]) was 98 ± 13 mg/dL and the “Ratio (fat/muscle)” value (db/db mice [2]; single dose part, Compound #8 300 mg/kg, total inguinal and retroperitoneal fat/muscle weight) was 23.4 ± 0.9.
